Laboratory results as given in patent publication US6787550B1, “Indole derivatives and their use for the treatment of osteoporosis amongst other applications” (Nikem Research S.r.l., priority 1999, dated 2004).

System: osteoclast proton pump
Settings: avian osteoclast membrane vesicles; literature background; cited from earlier work

SMILES | inhibition of proton transport
[Na+].[Na+].[Na+].[O]=[V]([O-])([O-])[O-] [sodium orthovanadate] | not inhibited
CCN1C(=O)C=CC1=O [N-ethylmaleimide (NEM), N-ethylmaleimide] | inhibited
Cc1nc2c(OCc3ccccc3)cccn2c1CC#N [SCH 28080] | not inhibited
CO/C1=C\C(C)=C\[C@@H](C)[C@@H](O)[C@@H](C)C/C(C)=C/C=C/[C@H](OC)[C@@H]([C@@H](C)[C@@H](O)[C@H](C)[C@@]2(O)C[C@@H](O)[C@H](C)[C@@H](C(C)C)O2)OC1=O [bafilomycin A1] | inhibited
C[C@@H]1O[C@@H](O[C@H]2C[C@@H](O)[C@]3(CO)[C@H]4[C@H](O)C[C@]5(C)[C@@H](C6=CC(=O)OC6)CC[C@]5(O)[C@@H]4CC[C@]3(O)C2)[C@H](O)[C@H](O)[C@H]1O [ouabain] | not inhibited

System: osteoclast cultures
Settings: literature background; cited from earlier work

SMILES | inhibition of bone resorption
CO/C1=C\C(C)=C\[C@@H](C)[C@@H](O)[C@@H](C)C/C(C)=C/C=C/[C@H](OC)[C@@H]([C@@H](C)[C@@H](O)[C@H](C)[C@@]2(O)C[C@@H](O)[C@H](C)[C@@H](C(C)C)O2)OC1=O [bafilomycin A1] | able to inhibit bone resorption

System: not given
Settings: not given

melting point | SMILES
220 °C | CC1(C)CC(NC(=O)c2ccc(-c3cc4cc(Cl)c(Cl)cc4[nH]3)c(OCc3ccccc3)c2)CC(C)(C)N1 [Example 2, 4-(5,6-Dichloro-1H-indol-2-yl)-3-benzyloxy-N-(2,2,6,6-tetramethylpiperidin-4-yl)-benzamide]
> 270 °C | CC1(C)CC(NC(=O)c2ccc(-c3cc4cc(Cl)c(Cl)cc4[nH]3)c(O)c2)CC(C)(C)N1 [Example 3, 4-(5,6-Dichloro-1H-indol-2-yl)-3-hydroxy-N-(2,2,6,6-tetramethylpiperidin-4-yl)-benzamide]
> 250 °C | CCCOc1cc(C(=O)NC2CC(C)(C)NC(C)(C)C2)ccc1-c1cc2cc(Cl)c(Cl)cc2[nH]1 [Example 4, 4-(5,6-Dichloro-1H-indol-2-yl)-3-propoxy-N-(2,2,6,6-tetramethylpiperidin-4-yl)benzamide]
